Results as given in US20050129610A1, “Imaging agents and methods of imaging alpha7-nicotinic cholinergic receptor” (Johns Hopkins University, priority 2003, published 2005).

Key:
[1] = biological target: rat α7 nAChR (Rattus norvegicus, UniProt Q05941); assay: Receptor binding assay, rat α7 nAChR
Description: (§1) Receptor Binding Assays. The affinities of 1-4 for the rat α4β2 and α7 nAChRs were determined as described previously (Mullen, et al., J. Med. Chem.; 2000;43(22):4045-50). Affinities for the rat 5-HT3 receptor were also determined as described previously (Macor, et al., Bioorg. Med. Chem. Lett. 2001;11(3):319-21). All Ki determinations were done using 5-7 concentrations. […] There was a wide margin in selectivity compared to the α4β2 receptor subtype. Also included are the relative binding affinities to the 5-HT3 receptor, which has high sequence homology to the α7-nAChR.

[2] = biological target: rat α4β2 nAChR (Rattus norvegicus, UniProt P09483+P12390); assay: Receptor binding assay, rat α4β2 nAChR (selectivity); settings: binding selectivity vs rat α4β2 nAChR
Description: as §1

[3] = biological target: T1, rat 5-HT3 receptor (Rattus norvegicus, UniProt P35563); assay: Receptor binding assay, rat 5-HT3 receptor (selectivity); settings: binding selectivity vs rat 5-HT3 receptor
T1 sequence (P35563 24-483): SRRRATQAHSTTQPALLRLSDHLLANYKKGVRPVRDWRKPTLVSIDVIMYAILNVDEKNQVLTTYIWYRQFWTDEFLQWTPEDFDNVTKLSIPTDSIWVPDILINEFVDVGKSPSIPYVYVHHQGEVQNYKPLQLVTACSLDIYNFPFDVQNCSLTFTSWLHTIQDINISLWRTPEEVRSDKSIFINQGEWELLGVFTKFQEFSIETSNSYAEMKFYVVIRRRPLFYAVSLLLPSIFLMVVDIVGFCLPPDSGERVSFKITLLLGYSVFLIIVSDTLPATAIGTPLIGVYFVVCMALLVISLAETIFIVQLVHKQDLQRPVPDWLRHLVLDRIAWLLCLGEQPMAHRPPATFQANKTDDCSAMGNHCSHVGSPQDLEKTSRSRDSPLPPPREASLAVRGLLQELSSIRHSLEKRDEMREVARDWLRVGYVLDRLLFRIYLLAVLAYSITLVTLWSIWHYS
Description: as §1

[4] = Rodent in vivo biodistribution (brain kinetics); set-up: species or system male CD-1 mice; settings: for Brain distribution, F. CTX / Brain distribution, S. COLL / Brain distribution, CB / Brain distribution, CTX / Brain distribution, HIPP / Brain distribution, STR / Brain distribution, THAL: mice; for Brain distribution, CB: cerebellum; for Brain distribution, CTX: cortex; for Brain distribution, HIPP: hippocampus; for Brain distribution, STR: striatum; for Brain distribution, THAL: thalamus
Description: (§2) Rodent In Vivo Biodistribution Studies of 1-4. Male CD-1 mice weighing between 20 and 25 g received an injection of 3.7 MBq (100 μCi) for 1 and 2 and 0.67 MBq ([…]) for 3 and 4 through the tail vein. The corresponding amounts administered were 0.2-0.8 μg/kg for 1 and 2 and 0.01-0.02 μg/kg for 3 and 4. For kinetic studies of 1-4, the mice were killed by cervical dislocation at 5, 15, 30 and 60 min after intravenous injection of radiotracer in 200 μL saline vehicle. The brains were removed and placed on ice, and the cerebellum, olfactory bulb, hypothalamus, hippocampus, striatum, cortex, brain stem and thalamus were harvested. A 45 min time point was obtained for 2 and one at 120 min for 3 and 4. The tissue samples were weighed and their radioactivity determined in an automated □ counter (1282 Compugamma CS; Pharmacia/LKB Nuclear Inc., Gaithersburg, Md.). The radioactivity concentration in aliquots of the injected tracer were determined along with the samples and served as standards for the calculation of percentage injected dose per gram of tissue (% ID/g). To assess binding specificity, subgroups of mice were treated with 10 mg/kg nicotine (for D or increasing doses of unlabeled 4 (0.01-10 mg/kg) 5 min prior to injection of radiotracer. Mice were killed at 30 and 60 min after blockade for 3 and 4, respectively.

[5] = biological target: T2, α7-nAChR (Mus musculus, UniProt P49582); assay: In vivo binding specificity (receptor blockade) study; set-up: species or system male CD-1 mice; settings: LSA determinations at 30 and 60 min, mice
T2 construct: Male CD-1 mice weighing between 20 and 25 g received an injection; from tissue; host or cells: brain of living male CD-1 mice (hippocampus, cortex and other regions)
Description: as §2

[6] = 30 min, low specific activity (LSA)
[7] = 60 min, low specific activity (LSA)

Chain of rat α4β2 nAChR (P09483 31-630): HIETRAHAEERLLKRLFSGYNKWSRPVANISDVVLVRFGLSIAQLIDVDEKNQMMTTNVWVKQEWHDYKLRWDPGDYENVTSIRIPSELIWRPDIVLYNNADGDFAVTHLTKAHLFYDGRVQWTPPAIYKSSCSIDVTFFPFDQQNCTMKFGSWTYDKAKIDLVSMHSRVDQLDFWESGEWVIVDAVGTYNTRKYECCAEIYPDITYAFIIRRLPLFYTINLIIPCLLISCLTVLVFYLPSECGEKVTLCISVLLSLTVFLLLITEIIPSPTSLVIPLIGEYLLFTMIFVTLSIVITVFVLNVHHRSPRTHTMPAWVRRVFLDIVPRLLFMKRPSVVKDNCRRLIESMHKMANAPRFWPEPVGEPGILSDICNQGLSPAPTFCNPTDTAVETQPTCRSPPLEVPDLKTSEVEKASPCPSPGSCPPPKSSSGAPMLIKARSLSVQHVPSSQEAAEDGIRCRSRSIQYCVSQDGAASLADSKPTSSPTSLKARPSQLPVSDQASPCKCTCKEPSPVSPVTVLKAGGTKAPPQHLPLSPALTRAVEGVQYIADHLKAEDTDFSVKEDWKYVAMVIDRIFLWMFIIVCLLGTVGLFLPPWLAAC
Chain of rat α4β2 nAChR (P12390 25-500): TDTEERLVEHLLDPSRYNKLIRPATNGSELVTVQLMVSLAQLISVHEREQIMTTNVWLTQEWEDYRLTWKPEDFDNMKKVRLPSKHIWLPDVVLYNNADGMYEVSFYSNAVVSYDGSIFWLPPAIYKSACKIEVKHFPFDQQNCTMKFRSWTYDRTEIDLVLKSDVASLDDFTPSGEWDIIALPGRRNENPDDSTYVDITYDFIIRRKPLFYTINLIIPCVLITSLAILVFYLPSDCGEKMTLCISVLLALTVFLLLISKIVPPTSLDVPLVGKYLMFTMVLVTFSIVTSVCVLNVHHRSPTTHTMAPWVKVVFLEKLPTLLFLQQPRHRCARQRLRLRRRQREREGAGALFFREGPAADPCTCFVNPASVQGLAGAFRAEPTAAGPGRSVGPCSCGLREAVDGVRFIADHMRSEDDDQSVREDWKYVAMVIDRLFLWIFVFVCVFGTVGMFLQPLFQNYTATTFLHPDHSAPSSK
Chain of rat α7 nAChR (Q05941 23-502): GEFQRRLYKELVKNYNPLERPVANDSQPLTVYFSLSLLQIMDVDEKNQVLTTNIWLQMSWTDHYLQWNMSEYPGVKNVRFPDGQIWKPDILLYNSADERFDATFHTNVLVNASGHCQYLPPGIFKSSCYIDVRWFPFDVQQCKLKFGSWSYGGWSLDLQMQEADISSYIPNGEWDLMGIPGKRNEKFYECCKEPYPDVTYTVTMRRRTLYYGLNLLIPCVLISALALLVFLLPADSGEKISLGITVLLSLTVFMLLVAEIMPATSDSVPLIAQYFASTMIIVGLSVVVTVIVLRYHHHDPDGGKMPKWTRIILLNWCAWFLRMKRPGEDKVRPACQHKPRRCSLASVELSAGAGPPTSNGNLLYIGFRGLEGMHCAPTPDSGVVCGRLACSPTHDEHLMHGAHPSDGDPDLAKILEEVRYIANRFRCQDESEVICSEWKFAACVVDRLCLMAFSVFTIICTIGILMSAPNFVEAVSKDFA
T2 sequence (P49582 23-502): as the sequence (Q05941 23-502) above, with A402T counted along it

## [11CH3]N(Cc1ccccc1)c1cnc2c(c1)CC1(CN3CCC1CC3)O2 (stereo not drawn) [Compound 1, (2′R)-N-[^11C]methyl-N-(phenylmethyl)-spiro[1-azabicyclo[2.2.2]octane-3,2′(3′H)-furo[2,3-b]pyridin]-5′-amine]
[1]
  Ki: 0.54 nM
[2]
  α7/α4: >22,000 (1)
[3]
  α7/5-HT3: 18 (1)
[4]; 5 min post i.v. injection
  Brain distribution, F. CTX: 1.77 ± 0.36 % ID/g
  Brain distribution, S. COLL: 1.49 ± 0.50 % ID/g
  Brain distribution, CB: 1.66 ± 0.50 % ID/g
  Brain distribution, CTX: 1.46 ± 0.48 % ID/g
  Brain distribution, HIPP: 1.24 ± 0.33 % ID/g
  Brain distribution, STR: 1.47 ± 0.38 % ID/g
  Brain distribution, THAL: 1.61 ± 0.61 % ID/g
[4]; 15 min post i.v. injection
  Brain distribution, F. CTX: 1.38 ± 0.25 % ID/g
  Brain distribution, S. COLL: 1.42 ± 0.26 % ID/g
  Brain distribution, CB: 1.38 ± 0.32 % ID/g
  Brain distribution, CTX: 1.28 ± 0.21 % ID/g
  Brain distribution, HIPP: 1.12 ± 0.15 % ID/g
  Brain distribution, STR: 1.20 ± 0.15 % ID/g
  Brain distribution, THAL: 1.35 ± 0.28 % ID/g
[4]; [6]
  Brain distribution, F. CTX: 1.28 ± 0.07 % ID/g
  Brain distribution, S. COLL: 1.04 ± 0.15 % ID/g
  Brain distribution, CB: 1.00 ± 0.06 % ID/g
  Brain distribution, CTX: 1.16 ± 0.13 % ID/g
  Brain distribution, HIPP: 1.27 ± 0.09 % ID/g
  Brain distribution, STR: 1.20 ± 0.05 % ID/g
  Brain distribution, THAL: 1.23 ± 0.12 % ID/g
[4]; 30 min post i.v. injection
  Brain distribution, F. CTX: 0.95 ± 0.06 % ID/g
  Brain distribution, S. COLL: 1.09 ± 0.14 % ID/g
  Brain distribution, CB: 1.16 ± 0.19 % ID/g
  Brain distribution, CTX: 0.89 ± 0.11 % ID/g
  Brain distribution, HIPP: 0.91 ± 0.05 % ID/g
  Brain distribution, STR: 0.93 ± 0.10 % ID/g
  Brain distribution, THAL: 1.11 ± 0.06 % ID/g
[4]; [7]
  Brain distribution, F. CTX: 1.07 ± 0.15 % ID/g
  Brain distribution, S. COLL: 0.88 ± 0.16 % ID/g
  Brain distribution, CB: 0.65 ± 0.07 % ID/g
  Brain distribution, CTX: 0.86 ± 0.15 % ID/g
  Brain distribution, HIPP: 0.98 ± 0.16 % ID/g
  Brain distribution, STR: 0.75 ± 0.22 % ID/g
  Brain distribution, THAL: 0.81 ± 0.06 % ID/g
[4]; 60 min post i.v. injection
  Brain distribution, F. CTX: 0.79 ± 0.11 % ID/g
  Brain distribution, CB: 0.84 ± 0.05 % ID/g
  Brain distribution, CTX: 0.69 ± 0.10 % ID/g
  Brain distribution, HIPP: 0.81 ± 0.10 % ID/g
  Brain distribution, STR: 0.69 ± 0.06 % ID/g
  Brain distribution, THAL: 0.77 ± 0.10 % ID/g
[4]; mouse brain, all time points, in words
  Regional selectivity of brain uptake: No α7-nAChR-selective, regional brain uptake
[4]; mouse brain, i.v. radiotracer
  Uptake within the brain (in words): limited but measurable uptake within the brain
[5]
  Receptor blockade in low specific activity (LSA) studies: nor was there evidence of receptor blockade
